What was measured:
Assay in all cases: relative viability (nuclei count vs DMSO), 5 days (fraction); higher = more cells survive
ALW-II-49-7 + Tozasertib = compound: Cc1ccc(C(=O)Nc2cccc(C(F)(F)F)c2)cc1Nc1cncc(C(N)=O)c1 [ALW-II-49-7] + Cc1cc(Nc2cc(N3CCN(C)CC3)nc(Sc3ccc(NC(=O)C4CC4)cc3)n2)n[nH]1 [Tozasertib] (partner 0.1 µM)
Outline: (§1)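 Five library-drug doses in √10 steps were combined with a fixed anchor-drug dose, or a single drug was given alone, by pin tool to lung cancer cell lines in 1536-well plates the day after seeding. Nuclei were stained and counted after 5 days. Relative viability is the nuclei count in treated wells over that in vehicle wells, taken as the median of duplicate plates.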

Dasatinib + Foretinib = compound: Cc1nc(Nc2ncc(C(=O)Nc3c(C)cccc3Cl)s2)cc(N2CCN(CCO)CC2)n1 [Dasatinib] + COc1cc2c(Oc3ccc(NC(=O)C4(C(=O)Nc5ccc(F)cc5)CC4)cc3F)ccnc2cc1OCCCN1CCOCC1 [Foretinib] (partner 0.25 µM)
Outline: as §1

Dasatinib + Vorinostat = compound: Cc1nc(Nc2ncc(C(=O)Nc3c(C)cccc3Cl)s2)cc(N2CCN(CCO)CC2)n1 [Dasatinib] + O=C(CCCCCCC(=O)Nc1ccccc1)NO [Vorinostat] (partner 1 µM)
Outline: as §1

XMD13-2 + Pictilisib = compound: C1CC1C(=O)NC2=NNC3=C2C=CC(=C3)C4=CC(=CC=C4)C(=O)NC5CC5 [XMD13-2] + CS(=O)(=O)N1CCN(Cc2cc3nc(-c4cccc5[nH]ncc45)nc(N4CCOCC4)c3s2)CC1 [Pictilisib] (partner 1 µM)
Outline: as §1

UMC-11
relative viability (ALW-II-49-7 + Tozasertib; first compound 0.08 µM): 0.193 | relative viability (ALW-II-49-7 + Tozasertib; first compound 0.253 µM): 0.202 | relative viability (ALW-II-49-7 + Tozasertib; first compound 0.8 µM): 0.21 | relative viability (ALW-II-49-7 + Tozasertib; first compound 2.53 µM): 0.186 | relative viability (ALW-II-49-7 + Tozasertib; first compound 8 µM): 0.217 | relative viability (Dasatinib + Foretinib; first compound 0.005 µM): 0.912 | relative viability (Dasatinib + Foretinib; first compound 0.01581 µM): 0.699 | relative viability (Dasatinib + Foretinib; first compound 0.05 µM): 0.696 | relative viability (Dasatinib + Foretinib; first compound 0.1581 µM): 0.379 | relative viability (Dasatinib + Foretinib; first compound 0.5 µM): 0.276 | relative viability (Dasatinib + Vorinostat; first compound 0.005 µM): 0.409 | relative viability (Dasatinib + Vorinostat; first compound 0.01581 µM): 0.289 | relative viability (Dasatinib + Vorinostat; first compound 0.05 µM): 0.315 | relative viability (Dasatinib + Vorinostat; first compound 0.1581 µM): 0.203 | relative viability (Dasatinib + Vorinostat; first compound 0.5 µM): 0.218 | relative viability (XMD13-2 + Pictilisib; first compound 0.05 µM): 0.943 | relative viability (XMD13-2 + Pictilisib; first compound 0.1581 µM): 0.8 | relative viability (XMD13-2 + Pictilisib; first compound 0.5 µM): 0.704 | relative viability (XMD13-2 + Pictilisib; first compound 1.581 µM): 0.803 | relative viability (XMD13-2 + Pictilisib; first compound 5 µM): 0.71

Source: the supplement of paper PMC10307832
